pIC50: −log10 of the molar value. “And” between values parts separate entries of the source, which are not always exact repeats. Equal entries are not always repeated.
Test system: HSSY-II complex spheroid growth, percent test/control
Assay: Anticancer human tumor HSSY-II cell line growth inhibition [Asc];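 further: spheroids exposed to drug for 7 days before reading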
Details: for viability, T/C: stronger effect = lower value; active means viability on the fitted dose curve at most 10% of control; inactive means the rest
In short: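 Tumor cells were grown as complex spheroids with human endothelial cells (HUVEC) and human mesenchymal stem cells as stroma. Agents were tested alone and in combination, in half-log steps down from the clinical Cmax, or from 10 microM where Cmax was unknown.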

[1] = curve of first compound, second compound 0.1 µM
[2] = curve of first compound, second compound 0.316 µM
[3] = curve of first compound, second compound 1 µM
[4] = curve of first compound, second compound 3.16 µM
[5] = curve of first compound, second compound 10 µM
[6] = second compound 0.1 µM, first compound 0.00316 µM
[7] = second compound 0.1 µM, first compound 0.01 µM
[8] = second compound 0.1 µM, first compound 0.0316 µM
[9] = second compound 0.1 µM, first compound 0.1 µM
[10] = second compound 0.1 µM, first compound 0.316 µM
[11] = second compound 0.1 µM, first compound 1 µM
[12] = second compound 0.316 µM, first compound 0.00316 µM
[13] = second compound 0.316 µM, first compound 0.01 µM
[14] = second compound 0.316 µM, first compound 0.0316 µM
[15] = second compound 0.316 µM, first compound 0.1 µM
[16] = second compound 0.316 µM, first compound 0.316 µM
[17] = second compound 0.316 µM, first compound 1 µM
[18] = second compound 1 µM, first compound 0.00316 µM
[19] = second compound 1 µM, first compound 0.01 µM
[20] = second compound 1 µM, first compound 0.0316 µM
[21] = second compound 1 µM, first compound 0.1 µM
[22] = second compound 1 µM, first compound 0.316 µM
[23] = second compound 1 µM, first compound 1 µM
[24] = second compound 3.16 µM, first compound 0.00316 µM
[25] = second compound 3.16 µM, first compound 0.01 µM
[26] = second compound 3.16 µM, first compound 0.0316 µM
[27] = second compound 3.16 µM, first compound 0.1 µM
[28] = second compound 3.16 µM, first compound 0.316 µM
[29] = second compound 3.16 µM, first compound 1 µM
[30] = second compound 10 µM, first compound 0.00316 µM
[31] = second compound 10 µM, first compound 0.01 µM
[32] = second compound 10 µM, first compound 0.0316 µM
[33] = second compound 10 µM, first compound 0.1 µM
[34] = second compound 10 µM, first compound 0.316 µM
[35] = second compound 10 µM, first compound 1 µM

O=C(c1ccc(F)c(F)c1Nc1ccc(I)cc1F)N1CC(O)([C@@H]2CCCCN2)C1 + Cc1c(S(C)(=O)=O)c(-c2cc(F)cc(N3CCN(c4ccc(NS(=O)(=O)c5ccc(NC(CCN6CCC(C(=O)OCCCP(=O)(O)O)CC6)CSc6ccccc6)c(S(=O)(=O)C(F)(F)F)c5)cc4)CC3)c2)c(-c2ccc(Cl)cc2)n1C(C)C
6.29: pIC50 [4]
6.25: pIC50 [1] | pIC50 [5]
6.24: pIC50 [2] | pIC50 [3]
inactive: viability, T/C [6] 97.4% | viability, T/C [7] 111% | viability, T/C [8] 106% | viability, T/C [9] 112% | viability, T/C [10] 77.6% | viability, T/C [11] 22.9% | viability, T/C [12] 110% | viability, T/C [13] 107% | viability, T/C [14] 99.5% | viability, T/C [15] 117% | viability, T/C [16] 79.3% | viability, T/C [17] 22.9% | viability, T/C [18] 115% | viability, T/C [19] 110% | viability, T/C [20] 114% | viability, T/C [21] 110% | viability, T/C [22] 81.8% | viability, T/C [23] 20.8% | viability, T/C [24] 107% | viability, T/C [25] 101% | viability, T/C [26] 105% | viability, T/C [27] 98.7% | viability, T/C [28] 71.8% | viability, T/C [29] 19.6% | viability, T/C [30] 96.2% | viability, T/C [31] 96.4% | viability, T/C [32] 104% | viability, T/C [33] 104% | viability, T/C [34] 81.7% | viability, T/C [35] 18.1%

Cc1nc(N2CCC3(CC2)COC(C)C3N)c(CO)nc1Sc1ccnc(N)c1Cl (stereo unspecified) + CNC(C)C(=O)NC1CN(S(=O)(=O)c2cccc(S(=O)(=O)N3CCC4CCC(C(=O)NC(c5ccccc5)c5ccccc5)N4C(=O)C(NC(=O)C(C)NC)C3)c2)CCC2CCC(C(=O)NC(c3ccccc3)c3ccccc3)N2C1=O
< 5.52: pIC50 (curve of first compound, second compound 0.00316 µM) | pIC50 (curve of first compound, second compound 0.01 µM) | pIC50 (curve of first compound, second compound 0.0316 µM) | pIC50 [1] | pIC50 [2] | pIC50 [3]
inactive: viability, T/C (second compound 0.00316 µM, first compound 0.00949 µM) 104% | viability, T/C (second compound 0.00316 µM, first compound 0.03 µM) 102% | viability, T/C (second compound 0.00316 µM, first compound 0.0949 µM) 90.9% | viability, T/C (second compound 0.00316 µM, first compound 0.3 µM) 92.6% | viability, T/C (second compound 0.00316 µM, first compound 0.949 µM) 90.7% | viability, T/C (second compound 0.00316 µM, first compound 3 µM) 69.1% | viability, T/C (second compound 0.01 µM, first compound 0.00949 µM) 105% | viability, T/C (second compound 0.01 µM, first compound 0.03 µM) 97.2% | viability, T/C (second compound 0.01 µM, first compound 0.0949 µM) 90.8% | viability, T/C (second compound 0.01 µM, first compound 0.3 µM) 93.7% | viability, T/C (second compound 0.01 µM, first compound 0.949 µM) 88.1% | viability, T/C (second compound 0.01 µM, first compound 3 µM) 66.9% | viability, T/C (second compound 0.0316 µM, first compound 0.00949 µM) 101% | viability, T/C (second compound 0.0316 µM, first compound 0.03 µM) 91.2% | viability, T/C (second compound 0.0316 µM, first compound 0.0949 µM) 95.4% | viability, T/C (second compound 0.0316 µM, first compound 0.3 µM) 85.8% | viability, T/C (second compound 0.0316 µM, first compound 0.949 µM) 90.7% | viability, T/C (second compound 0.0316 µM, first compound 3 µM) 74.9% | viability, T/C (second compound 0.1 µM, first compound 0.00949 µM) 96.9% | viability, T/C (second compound 0.1 µM, first compound 0.03 µM) 96.4% | viability, T/C (second compound 0.1 µM, first compound 0.0949 µM) 97.5% | viability, T/C (second compound 0.1 µM, first compound 0.3 µM) 95.6% | viability, T/C (second compound 0.1 µM, first compound 0.949 µM) 84.3% | viability, T/C (second compound 0.1 µM, first compound 3 µM) 70.8% | viability, T/C (second compound 0.316 µM, first compound 0.00949 µM) 93.5% | viability, T/C (second compound 0.316 µM, first compound 0.03 µM) 94.2% | viability, T/C (second compound 0.316 µM, first compound 0.0949 µM) 90.2% | viability, T/C (second compound 0.316 µM, first compound 0.3 µM) 85.4% | viability, T/C (second compound 0.316 µM, first compound 0.949 µM) 78.7% | viability, T/C (second compound 0.316 µM, first compound 3 µM) 72.5% | viability, T/C (second compound 1 µM, first compound 0.00949 µM) 97.5% | viability, T/C (second compound 1 µM, first compound 0.03 µM) 92.8% | viability, T/C (second compound 1 µM, first compound 0.0949 µM) 92.7% | viability, T/C (second compound 1 µM, first compound 0.3 µM) 84.7% | viability, T/C (second compound 1 µM, first compound 0.949 µM) 87.6% | viability, T/C (second compound 1 µM, first compound 3 µM) 76%

C=C(F)C(=O)N1CCN(c2nc(OCC3CCCN3C)nc3c2CCN(c2cccc4cccc(Cl)c24)C3)CC1CC#N (stereo unspecified)
active: viability, T/C (compound 3.16 µM) 5.2% and 4.65% and 3.69% | viability, T/C (compound 10 µM) 0.22% and 0.2% and 0.21%
5.84 and 5.80 and 5.85: pIC50 (curve of compound)
inactive: viability, T/C (compound 0.0316 µM) 102% and 104% and 97.2% | viability, T/C (compound 0.1 µM) 100% and 111% and 98.8% | viability, T/C (compound 0.316 µM) 89.8% and 89.1% and 90.5% | viability, T/C (compound 1 µM) 70.2% and 80.1% and 70%

CCN1CCN(Cc2ccc(Nc3ncc(F)c(-c4cc(F)c5nc(C)n(C(C)C)c5c4)n3)nc2)CC1 + Cc1c(S(C)(=O)=O)c(-c2cc(F)cc(N3CCN(c4ccc(NS(=O)(=O)c5ccc(NC(CCN6CCC(C(=O)OCCCP(=O)(O)O)CC6)CSc6ccccc6)c(S(=O)(=O)C(F)(F)F)c5)cc4)CC3)c2)c(-c2ccc(Cl)cc2)n1C(C)C
6.95: pIC50 [4]
7.16: pIC50 [5]
inactive: viability, T/C [6] 90.8% | viability, T/C [7] 105% | viability, T/C [8] 71.5% | viability, T/C [9] 68.5% | viability, T/C [10] 47.5% | viability, T/C [11] 26.7% | viability, T/C [12] 92.4% | viability, T/C [13] 88.2% | viability, T/C [14] 75.6% | viability, T/C [15] 52.8% | viability, T/C [16] 40% | viability, T/C [17] 20.7% | viability, T/C [18] 94.7% | viability, T/C [19] 83.1% | viability, T/C [20] 70% | viability, T/C [21] 57.6% | viability, T/C [22] 34.8% | viability, T/C [23] 24.9% | viability, T/C [24] 80.9% | viability, T/C [25] 91.8% | viability, T/C [26] 74.2% | viability, T/C [27] 49% | viability, T/C [28] 38.2% | viability, T/C [29] 23.1% | viability, T/C [30] 83.9% | viability, T/C [31] 81.3% | viability, T/C [32] 60.7% | viability, T/C [33] 41.6% | viability, T/C [34] 40.3% | viability, T/C [35] 24.9%
6.87: pIC50 [3]
6.59: pIC50 [1]
6.84: pIC50 [2]

C#Cc1c(F)ccc2cc(O)cc(-c3ncc4c(N5CC6CCC(C5)N6)nc(OCC56CCCN5CC(F)C6)nc4c3F)c12 (stereo unspecified)
inactive: viability, T/C (compound 0.0316 µM) 97.9% and 106% and 112% | viability, T/C (compound 0.1 µM) 101% and 94.9% and 106% | viability, T/C (compound 0.316 µM) 97.4% and 92.7% and 94% | viability, T/C (compound 1 µM) 105% and 102% and 90.2% | viability, T/C (compound 3.16 µM) 91.3% and 93.7% and 92.3% | viability, T/C (compound 10 µM) 74.2% and 53.3% and 44.5%
< 5.00 and 5.05: pIC50 (curve of compound)

From PubChem BioAssay AID1963444 (Molecular Pharmacology Branch, DTP, NCI, 2024)
